Source: patent US20070167492A1, “Molluscicidal agents” (priority 2003, published 2007)

How the values were obtained:
Type in all cases: in vivo
[1] = system: Deroceras reticulatum (grey field slug); experiment: Example 2: pot re-test, treated winter wheat seed with 5 adult slugs per pot, 7 days
Text: Based on the results of the experiment described in Example 1, a selection was made from the various test numbers of that experiment for re-testing, partly to confirm the conclusions of that experiment and to test the unexpected outcome of some test compounds.
The selection of test numbers (Test No.) used in the present experiment relative to those of the experiment described in Example 1 is shown in Table 7.
The same seeds as described in Example 1 were sown in earthenware pots with an internal diameter of 20 cm and a height of 18 cm, filled with 7 cm of potting soil (Trio BV, Weesp, The Netherlands) and with a top 2 cm of white quartz sand. A total of 40 winter wheat seeds was placed in each pot, in a pattern of concentric circles on top of the quartz sand, the germ of the seed facing upwards. To each pot a total of 5 adult specimens of the test slug Deroceras reticulatum (grey field slug) were added. The pots were incubated at 18-19° C. with a relative humidity of ±95% and light regime of ±18 hours light/6 hours dark, without artificial lighting. The pots were not irrigated overhead. In total, 4 parallel tests were performed for each test.
The number of damaged seeds was, the number of plants present (germinated and not eaten or damaged by the slugs), the number of dead slugs and of the number of fecal pellets were determined after 2, 3 and 7 days following the addition of the slugs.
(§1) The data were statistically analysed by using F-tests (α=0.05) and pair-wise Student-tests.

[2] = system: Winter wheat (Kampa race) seeds; experiment: Seed germination test of treated winter wheat seeds (rolled in paper); conditions: 3x50 seeds, 6 days at 22° C.
Procedure: (§2) Winter wheat (Kampa race; thousand grain weight of 51 grams) was used in an experiment to test the efficacy of the compositions of the present inventions in relation to known molluscicidal compounds. The seeds were disinfected for soil and germ moulds with 2 ml of Beret Gold (comprising 25 g/l of the fungicide fludioxonil) per kg of seed.
(§3) Sepiret® was added to all dry disinfections, and is the coating that was added to all agents of which the formulation was not suitable for coating.
Table 2 provides an overview of the amounts of diluent water and Sepiret® used for treating the wheat seeds. Table 2 further provides the quality of the coating and the percentages of germinating seeds in a seed germination test. In this test, the percentage of germination of 3×50 seeds, rolled in paper, was determined after 6 days at 22° C. (continuously) and a 16 hours light regime.

[3] = system: Deroceras reticulatum (grey field slug); experiment: Example 1: pot test, treated winter wheat seed with 5 adult slugs per pot, 14 days
Procedure: as §2, §3
The seeds were sown in earthenware pots with an internal diameter of 20 cm and a height of 18 cm, filled with 7 cm of potting soil (Trio BV, Weesp, The Netherlands) and with a top 2 cm of white quartz sand. A total of 40 seeds was placed in each pot, in a pattern of concentric circles on top of the quartz sand, the germ facing upwards. To each pot a total of 5 adult specimens of the test slug Deroceras reticulatum (grey field slug) were added. The pots were incubated at ±15° C. with a relative humidity of ±90% and light regime of ±12 hours light/12 hours dark, without artificial lighting. The pots were not irrigated overhead. In total, 4 parallel tests were performed for each test.
Following the addition of the slugs, the number of damaged seeds was counted after 2, 3, 7, 10 and 14 days. The number of plants present (germinated and not eaten or damaged by the slugs) was determined 3, 7, 10 and 14 days after the start of the test. […] The number of dead slugs was counted 2, 3, 7, 10 and 14 days after the start of the test (but not removed). Finally, on days 3, 7, 10 and 14 after the start of the test, the number fecal pellets was counted.
as §1

[4] = Example 2, 2 ml formulated per kg seed, 2 days after sowing
[5] = Example 2, 2 ml formulated per kg seed, 3 days after sowing
[6] = Example 2, 2 ml formulated per kg seed, 7 days after sowing
[7] = Example 2, 4 ml formulated per kg seed, 2 days after sowing
[8] = Example 2, 4 ml formulated per kg seed, 3 days after sowing
[9] = Example 2, 4 ml formulated per kg seed, 7 days after sowing
[10] = Example 2, after 2, 3 and 7 days
[11] = 2 ml formulated per kg seed, 2 days after sowing
[12] = 2 ml formulated per kg seed, 3 days after sowing
[13] = 2 ml formulated per kg seed, 7 days after sowing
[14] = 2 ml formulated per kg seed, 10 days after sowing
[15] = 2 ml formulated per kg seed, 14 days after sowing
[16] = 4 ml formulated per kg seed, 2 days after sowing
[17] = 4 ml formulated per kg seed, 3 days after sowing
[18] = 4 ml formulated per kg seed, 7 days after sowing
[19] = 4 ml formulated per kg seed, 10 days after sowing
[20] = 4 ml formulated per kg seed, 14 days after sowing
[21] = 8 ml formulated per kg seed, 2 days after sowing
[22] = 8 ml formulated per kg seed, 3 days after sowing
[23] = 8 ml formulated per kg seed, 7 days after sowing
[24] = 8 ml formulated per kg seed, 10 days after sowing
[25] = 8 ml formulated per kg seed, 14 days after sowing

CNC(=O)Oc1cc(C)c(SC)c(C)c1 [methiocarb, 4-methylthio-3,5-xylyl methylcarbamate]
dead slugs observed during the course of the experiment ([1]; Example 2): More dead slugs | result of seed treatment against slugs (conclusion) ([1]; Example 2): fairly food protection of the seeds against slugs | percentage of damaged seeds after 7 days ([1]; Example 2, 2 ml formulated per kg seed): 14% | Mean number of damaged seeds per pot [1, 4]: 2.5 | Mean number of dead slugs per pot [1, 4]: 0.3 | Mean number of damaged seeds per pot [1, 5]: 4.8 | Mean number of dead slugs per pot [1, 5]: 0.5 | Mean number of damaged seeds per pot [1, 6]: 5.5 | Mean number of dead slugs per pot [1, 6]: 2.3 | percentage of damaged seeds after 7 days ([1]; Example 2, 4 ml formulated per kg seed): 9% | Mean number of damaged seeds per pot [1, 7]: 1.8 | Mean number of dead slugs per pot [1, 7]: 0 | Mean number of damaged seeds per pot [1, 8]: 2.0 | Mean number of dead slugs per pot [1, 8]: 1.8 | Mean number of damaged seeds per pot [1, 9]: 3.5 | Mean number of dead slugs per pot [1, 9]: 3.3 | number of fecal pellets per pot relative to the untreated control [1, 10]: significant reduction in the number of fecal pellets | plants present relative to the untreated seed [1, 10]: significantly more plants present | number of damaged seeds relative to the untreated seed ([1]; Example 2, two days after the start): significant reduction in the number of damaged seeds | Mean number of fecal pellets per pot ([1]; dosage 2 ml, 2 days): 1 | Mean number of plants present per pot ([1]; dosage 2 ml, 2 days): 9.0 | Mean number of fecal pellets per pot ([1]; dosage 2 ml, 3 days): 9 | Mean number of plants present per pot ([1]; dosage 2 ml, 3 days): 22.5 | Mean number of fecal pellets per pot ([1]; dosage 2 ml, 7 days): 20 | Mean number of plants present per pot ([1]; dosage 2 ml, 7 days): 34.0 | number of utilizable plants after 7 days ([1]; dosage 2 ml, 7 days): 26.8 | Mean number of fecal pellets per pot ([1]; dosage 4 ml, 2 days): 2 | Mean number of plants present per pot ([1]; dosage 4 ml, 2 days): 28.3 | Mean number of fecal pellets per pot ([1]; dosage 4 ml, 3 days): 7 | Mean number of plants present per pot ([1]; dosage 4 ml, 3 days): 33.3 | Mean number of fecal pellets per pot ([1]; dosage 4 ml, 7 days): 11 | Mean number of plants present per pot ([1]; dosage 4 ml, 7 days): 34.5 | number of utilizable plants after 7 days ([1]; dosage 4 ml, 7 days): 32.5 | Percentage germinated ([2]; 2 ml formulated per kg seed): 61% | Percentage germinated ([2]; 4 ml formulated per kg seed): 63% | Percentage germinated ([2]; 8 ml formulated per kg seed): 27% | number of utilizable plants after 14 days ([3]; 2 ml formulated per kg seed): 15.5 | percentage of damaged seeds after 14 days ([3]; 2 ml formulated per kg seed): 44% | Mean number of damaged seeds per pot [3, 11]: 2.0 | Mean number of dead slugs per pot [3, 11]: 0.3 | Mean number fecal pellets per pot [3, 12]: 18 | Mean number of damaged seeds per pot [3, 12]: 5.3 | Mean number of dead slugs per pot [3, 12]: 0.3 | Mean number of plants present per pot [3, 12]: 10.5 | Mean number fecal pellets per pot [3, 13]: 43 | Mean number of damaged seeds per pot [3, 13]: 19.3 | Mean number of dead slugs per pot [3, 13]: 0.3 | Mean number of plants present per pot [3, 13]: 16.5 | Mean number fecal pellets per pot [3, 14]: 47 | Mean number of damaged seeds per pot [3, 14]: 17.0 | Mean number of dead slugs per pot [3, 14]: 0.3 | Mean number of plants present per pot [3, 14]: 19.8 | Mean number fecal pellets per pot [3, 15]: 50 | Mean number of damaged seeds per pot [3, 15]: 17.8 | Mean number of dead slugs per pot [3, 15]: 0.5 | Mean number of plants present per pot [3, 15]: 21.3 | number of utilizable plants after 14 days ([3]; 4 ml formulated per kg seed): 19.8 | percentage of damaged seeds after 14 days ([3]; 4 ml formulated per kg seed): 13% | Mean number of damaged seeds per pot [3, 16]: 1.3 | Mean number of dead slugs per pot [3, 16]: 0 | Mean number fecal pellets per pot [3, 17]: 16 | Mean number of damaged seeds per pot [3, 17]: 3.3 | Mean number of dead slugs per pot [3, 17]: 0 | Mean number of plants present per pot [3, 17]: 7.8 | Mean number fecal pellets per pot [3, 18]: 34 | Mean number of damaged seeds per pot [3, 18]: 10.8 | Mean number of dead slugs per pot [3, 18]: 0.3 | Mean number of plants present per pot [3, 18]: 22.8 | Mean number fecal pellets per pot [3, 19]: 35 | Mean number of damaged seeds per pot [3, 19]: 4.8 | Mean number of dead slugs per pot [3, 19]: 0.3 | Mean number of plants present per pot [3, 19]: 30.3 | Mean number fecal pellets per pot [3, 20]: 36 | Mean number of damaged seeds per pot [3, 20]: 5.0 | Mean number of dead slugs per pot [3, 20]: 1.8 | Mean number of plants present per pot [3, 20]: 29.8 | number of utilizable plants after 14 days ([3]; 8 ml formulated per kg seed): 33.0 | percentage of damaged seeds after 14 days ([3]; 8 ml formulated per kg seed): 8% | Mean number of damaged seeds per pot [3, 21]: 1.8 | Mean number of dead slugs per pot [3, 21]: 0 | Mean number fecal pellets per pot [3, 22]: 6 | Mean number of damaged seeds per pot [3, 22]: 2.5 | Mean number of dead slugs per pot [3, 22]: 0.3 | Mean number of plants present per pot [3, 22]: 4.3 | Mean number fecal pellets per pot [3, 23]: 23 | Mean number of damaged seeds per pot [3, 23]: 4.5 | Mean number of dead slugs per pot [3, 23]: 0.5 | Mean number of plants present per pot [3, 23]: 32.0 | Mean number fecal pellets per pot [3, 24]: 27 | Mean number of damaged seeds per pot [3, 24]: 3.3 | Mean number of dead slugs per pot [3, 24]: 1.3 | Mean number of plants present per pot [3, 24]: 33.8 | Mean number fecal pellets per pot [3, 25]: 27 | Mean number of damaged seeds per pot [3, 25]: 3.3 | Mean number of dead slugs per pot [3, 25]: 1.5 | Mean number of plants present per pot [3, 25]: 34.8 | effect on the slug population ([3]; Example 1): little effect on the slug population | damaged seeds relative to the untreated pots ([3]; Example 1, 2, 4 and 8 ml per kg of seed, from day 3 after sowing): significantly less damaged seeds | plants present relative to the untreated pots ([3]; Example 1, 2, 4 or 8 ml per kg of seed, after 3 (only 2 ml), 7, 10 and 14 days): significantly more plants present | fecal pellets relative to the untreated seed ([3]; Example 1, at each dosage and at each observation): significantly less fecal pellets | protection / slug controlling effect (conclusion) ([3]; Example 1, winter wheat seed treatment, dosages tested): good protection to both seeds and plants
